Assays:
GSC23 (PN) = assay: WST-1 viability assay in glioma stem cells; format: cell-based, human; conditions: GSC23, highest concentrations of onalespib
EGFR signaling pathway = assay: Immunoblot of EGFR-AKT-ERK-S6 signaling in glioma cell lines; format: cell-based, human
A172 cells = assay: WST-1 proliferation assay; format: cell-based; conditions: Homo sapiens, A 172, 72 h, read-out: IC50, proliferation (WST assay)
LN229 cells = assay: WST-1 proliferation assay; format: cell-based; conditions: Homo sapiens, LN-229, 72 h, read-out: IC50, proliferation (WST assay)
U251HF-GFP xenograft = assay: Orthotopic intracranial zebrafish glioma xenograft; conditions: TMZ 10 μM, onalespib 0.5 μM in fish water, 5-10 dpt
HSP90 [1] = assay: HSP70 immunoblot as biomarker of HSP90 inhibition in glioma cell lines; format: cell-based, human; conditions: LN229, U251HF, A172; 0.1, 0.2, 0.4 μM, 48 h
p-STAT3 = p-STAT3 immunoblot in MES and PN GSC lines; format: cell-based, human; conditions: 48 h
GSC2 (MES) = assay: WST-1 viability assay in glioma stem cells; format: cell-based, human; conditions: GSC2, highest concentrations of onalespib
GSC811 xenograft = assay: Patient-derived GSC811 intracranial xenograft in mice; format: in vivo, mouse; conditions: TMZ 4 mg/kg oral daily x5, onalespib 30 mg/kg iv day 16 and 19; vs vehicle
GSC lines = assay: Transwell migration; format: cell-based, human
GSC20 (MES) = assay: WST-1 viability assay in glioma stem cells; format: cell-based, human; conditions: GSC20, highest concentrations of onalespib
[2] = test system: U251HF, LN229 and A172 cells; assay: Wound healing; format: cell-based, human; conditions: 0.4 μM, 24 h, vs untreated controls
[3] = Brain and plasma pharmacokinetics by LC-MS/MS after iv bolus; format: in vivo, mouse; conditions: 30 mg/kg iv single dose
GSC11 (PN) = assay: WST-1 viability assay in glioma stem cells; format: cell-based, human; conditions: GSC11, highest concentrations of onalespib
[4] = test system: HSP90 / EGFR pathway in GSC11 and GSC23; assay: Immunoblot of HSP70 and EGFR pathway in GSC11 and GSC23 neurospheres; format: cell-based, human; conditions: GSC11 and GSC23, 48 h
HSP90 [5] = assay: HSP70 immunohistochemistry of brain tissue as marker of HSP90 inhibition in vivo; design: species or system mouse; conditions: 30 mg/kg iv, 0-24 h, vs vehicle treated mice
[6] = test system: LN229, U251HF and A172 cells; assay: Apoptosis: annexin V/PI flow cytometry and caspase-3/7 activation; format: cell-based, human
[7] = test system: endothelial cells exposed to conditioned medium of LN229, U251HF and A172 cells; format: cell-based; conditions: 0.4 μM for 24 h
U251HF cells = assay: WST-1 proliferation assay; format: cell-based; conditions: Homo sapiens, 72 h, read-out: IC50, proliferation (WST assay)
[8] = test system: LN229, U251HF and A172 cells; assay: Colony forming assay; format: cell-based, human; conditions: 0.4 μM for 24 h, colonies after 10 days
CD133, Nestin, Olig2 = assay: Stem cell marker expression in GSC11 and GSC23; format: cell-based, human
EGFRvIII = assay: Immunoblot in U87 cells expressing mutant EGFRvIII; format: cell-based, human; conditions: 0.1, 0.2, 0.4 μM

SMILES: CC(C)c1cc(C(=O)N2Cc3ccc(CN4CCN(C)CC4)cc3C2)c(O)cc1O [onalespib, (2,4-dihydroxy-5-isopropylphenyl)-[5-(4-methylpiperazin-1-ylmethyl)-1,3-dihydroisoindol-2-yl]methanone]
- loss of viability (GSC23 (PN)): 50%
- EGFR level, time course (EGFR signaling pathway; 0.4 μM, up to 24 h): time-dependent decline
- levels of EGFR, p-EGFR, phospho- and total AKT, ERK1/2 and S6 (EGFR signaling pathway; U251HF, LN229, A172, 0.1-0.4 μM, 48 h): robust dose-dependent decrease
- IC50 (A172 cells): ≤ 250 nM
- IC50 (LN229 cells): ≤ 250 nM
- survival (U251HF-GFP xenograft): extended survival
- tumor burden (U251HF-GFP xenograft): moderate reductions
- HSP70 levels (marker of HSP90 inhibition) (HSP90 [1]): increase in HSP70 levels in cells in a dose-dependent manner
- p-STAT3 (p-STAT3): inhibited
- viability (lost to) (GSC2 (MES)): 50%
- survival (GSC811 xenograft): did not extend survival
- invasive ability, transwell migration (GSC lines): markedly decreased
- viability (lost to) (GSC20 (MES)): 50%
- cell migration, wound healing [2]: reduced ability to migrate
- brain Cmax relative to plasma Cmax (fold lower) [3]: 4.7 fold
- overall brain exposure versus plasma [3]: greater than of plasma
- onalespib level in brain tissue versus plasma ([3]; each time point from 2 h up to 24 h): higher in brain tissue compared to the plasma
- loss of viability (GSC11 (PN)): over 90%
- HSP70 levels in GSC [4]: characteristic increase
- levels of total EGFR, pEGFR in GSC [4]: steep declines
- percentage and intensity of HSP70 pixels in brain tissue (HSP90 [5]): increase
- activation of caspase-3 and caspase-7 ([6]; increasing concentrations of onalespib): dose-dependent activation
- percentage of annexin positive cells ([6]; increasing concentrations, 48 h): increase
- number of microtubules formed by endothelial cells in response to CM [7]: strongly inhibited
- IC50 (U251HF cells): ≤ 250 nM
- colony formation (proliferative capacity) [8]: significantly inhibited
- expression of stem cell markers CD133 and Nestin (CD133, Nestin, Olig2): dose-dependent decrease
- depletion of mutant EGFRvIII and downstream intermediates (EGFRvIII): equally effective

SMILES: Cn1nnc2c(C(N)=O)ncn2c1=O [TMZ, temozolomide]
- tumor burden (U251HF-GFP xenograft): moderate reductions
- survival (GSC811 xenograft): did not extend survival
